Test results as given in paper PMC5562778 (Archives of Toxicology, 2017).
Where two headings read alike, the source gives them in different places.

What was measured:
Chinese liver S9 = assay: Oxidation of 1′-hydroxyestragole by Chinese liver S9 (NAD+, GSH trapping); assay type: in vitro ADME, human
Protocol: (§1) Mixed gender Chinese or Caucasian liver S9 was incubated with 1′-hydroxyestragole in the presence of NAD^+ and GSH, the latter added to trap the transient 1′-oxoestragole. Formation of the 1′-oxoestragole adducts with GSH forming GS-1′-oxoestragole reflects the formation of 1′-oxoestragole (Punt et al. [2009]). […] The reactions were terminated after 10 min by the addition of 25 μL ice-cold acetonitrile. Blank incubations were performed without cofactor NAD^+. All incubations were performed in triplicate.
(§2) Secondary metabolism of 1′-hydroxyestragole includes glucuronidation, oxidation, and sulfation. The gradient of analysis of the metabolites of 1′-hydroxyestragole can be found in supporting materials 2. Table S1 can be used to track more detailed information.
(§3) Identification of the GS-1′-oxoestragole which reflects the formation of 1′-oxoestragole was done by comparing the UV spectra and retention time of the formed GSH adduct to those of GS-1′-oxoestragole identified as described previously (Punt et al. [2009]). Quantification of the GSH conjugate of 1′-oxoestragole was achieved by comparing the peak area to the calibration curve of GS-1′-oxoestragole at a wavelength of 280 nm prepared as described previously by Punt et al. ([2009], [2016]). Briefly, the calibration curve of GS-1′-oxoestragole was prepared by incubating 40 μM 1′-oxoestragole with a range of GSH concentrations. The reactions were incubated for 4 h after which maximal formation of GS-1′-oxoestragole was previously shown to be reached (Punt et al. [2009]).
(§4) Mixed gender Chinese or Caucasian liver S9 was incubated with 1'-hydroxyestragole in the presence of NAD^+ and GSH, the latter added to trap the transient 1'-oxoestragole. Formation of the 1'-oxoestragole adducts with GSH forming GS-1'-oxoestragole reflects the formation of 1'-oxoestragole (Punt et al. 2009). […] The mixtures were pre-incubated for 1 min at 37 °C, after which the reactions were started by adding the substrate 1'-hydroxyestragole at concentrations ranging from 15 to 1000 μM added from 100 times concentrated stock solutions in DMSO. The reactions were terminated after 10 min by the addition of 25 μl ice-cold acetonitrile. Under these conditions, the formation of the GSH adduct of 1'-oxoestragole was linear with time and cytosolic protein concentration (Punt et al. 2009). Blank incubations were performed without cofactor NAD^+. All incubations were performed in triplicate.
(§5) The gradient for analysis of the metabolites contains a mixture of acetonitrile and 0.1 % TFA in ultrapure water with 0.6 ml/min flow rate.

Caucasian liver S9 = assay: Oxidation of 1′-hydroxyestragole by Caucasian liver S9 (NAD+, GSH trapping); assay type: in vitro ADME, human
Protocol: as §1, §2, §3, §4, §5

[1] = test system: Caucasian liver microsomes; assay: Microsomal conversion of estragole by Caucasian liver microsomes (NADPH); assay type: in vitro ADME, human; conditions: for Catalytic efficiency (scaled V max / K m) / Scaled V max: formation from estragole, Caucasian; for Catalytic efficiency (scaled V max / K m): scaled to liver; for Scaled V max: scaled with microsomal protein yield 35 mg/(g tissue); for Catalytic efficiency (V max/K m × 1000) / K m / V max: formation of the metabolite from estragole, Caucasian liver microsomes; for K m / V max: average ± SEM
Protocol: (§6) The incubation mixtures contained (final concentrations) 3 mM NADPH and 1 mg/mL microsomal protein in 0.2 M Tris–HCl (pH 7.4). Incubations were performed for 10 min at substrate concentrations ranging from 25 to 1000 μM, after which the reaction was terminated by adding 25 μL ice-cold acetonitrile. Blank incubations were performed in the absence of the cofactor NADPH. All incubations were performed in triplicate. In the supporting materials 2, detailed information can be found (Table S1 can be used to keep track of detailed information).
Before UPLC analysis, all samples were centrifuged for 5 min at 16,000 g to precipitate microsomal proteins. Supernatant of each sample was analyzed on UPLC using a BEH C18 (1.7 μm, 2.1 × 50 mm) column with a guard column and a diode array detector (Acquity, Waters). […] Table S1 can be used to keep track of detailed information. […] 3′-Hydroxyanethole was quantified by comparison of the peak areas of the metabolite in the chromatograms obtained at a wavelength of 206 nm to the calibration curve of the synthesized reference compound (Agharahimi and LeBel [1995]; Drinkwater et al. [1976]; Iyer et al. [2003]; Luo et al. [1992]).
(§7) The apparent maximum velocity (V max) and the apparent Michaelis–Menten constant (K m) were determined by fitting the data to this equation using GraphPad Prism version 5.0 (GraphPad software, San Diego California USA).
(§8) The incubation mixtures contained (final concentrations) 3 mM NADPH and 1 mg/ml microsomal protein in 0.2 M Tris-HCl (pH 7.4). […] Incubations were performed for 10 min at substrate concentrations ranging from 25 to 1000 μM, after which the reaction was terminated by adding 25 μl ice-cold acetonitrile. […] Blank incubations were performed in the absence of the cofactor NADPH. All incubations were performed in triplicate.
The flow rate was 0.6 ml/min and the gradient started with 100 % ultrapure water. After 1 min, the amount of acetonitrile was increased to 10 % and kept at that level for 1 min, after which the percentage of acetonitrile was increased to 35 % in 2.5 min and then increased to 100 % over 0.5 minute and kept at 100 % acetonitrile for another 1 min, and finally back to the starting conditions.

Chinese liver microsomes = assay: Microsomal conversion of estragole by Chinese liver microsomes (NADPH); conditions: for Catalytic efficiency (scaled V max / K m) / Scaled V max: formation from estragole, Chinese; for Scaled V max: scaled with microsomal protein yield 35 mg/(g tissue); for Catalytic efficiency (V max/K m × 1000) / K m / V max: formation of the metabolite from estragole, Chinese liver microsomes; for K m / V max: average ± SEM; for Catalytic efficiency for formation of the metabolite, lower in Chinese than in Caucasian samples / V max for formation of the metabolite, lower in Chinese than in Caucasian samples: in vitro, liver microsomes
Protocol: as §6
Before UPLC analysis, all samples were centrifuged for 5 min at 16,000 g to precipitate microsomal proteins. Supernatant of each sample was analyzed on UPLC using a BEH C18 (1.7 μm, 2.1 × 50 mm) column with a guard column and a diode array detector (Acquity, Waters). […] Table S1 can be used to keep track of detailed information.
as §7, §8
The flow rate was 0.6 ml/min and the gradient started with 100 % ultrapure water.

[2] = PBK prediction, ref Barter et al. [2013], cited from earlier work
[3] = ref Barter et al. [2013], cited from earlier work
[4] = formation from 1′-hydroxyestragole (oxidation), Chinese liver S9
[5] = formation from 1′-hydroxyestragole (oxidation), Chinese liver S9, listed as 1′-oxoestragole
[6] = formation from 1′-hydroxyestragole (oxidation), Caucasian liver S9
[7] = formation from 1′-hydroxyestragole (oxidation), Caucasian liver S9, listed as 1′-oxoestragole

Structure (SMILES)	Catalytic efficiency (scaled V max / K m) [1] [µL/h/g liver]	Scaled V max [1] [µmol/h/g liver]	Catalytic efficiency (V max/K m × 1000) [1]	K m [1] [µM]	V max [1]	Catalytic efficiency (scaled V max / K m) (Chinese liver microsomes; scaled to liver) [µL/h/g liver]	Scaled V max (Chinese liver microsomes) [µmol/h/g liver]	Catalytic efficiency (V max/K m × 1000) (Chinese liver microsomes)	K m (Chinese liver microsomes) [µM]	V max (Chinese liver microsomes)	Catalytic efficiency for formation of the metabolite, lower in Chinese than in Caucasian samples (Chinese liver microsomes; conversion of estragole) [fold]	V max for formation of the metabolite, lower in Chinese than in Caucasian samples (Chinese liver microsomes; conversion of estragole) [fold]	also measured
C=CC(=O)c1ccc(OC)cc1 [1′-Oxoestragole]	–	–	–	–	–	–	–	–	–	–	–	–	Catalytic efficiency (V max/K m × 1000) (Chinese liver S9; [4]): 4.5 µL/min/mg microsomal or S9 protein; K m (Chinese liver S9; [4]): 403 ± 137 µM; V max (Chinese liver S9; [4]): 1.82 ± 0.28 nmol /min/mg microsomal or S9 protein; K m (Chinese liver S9; [5]): 403 µM; V max (Chinese liver S9; [5]): 1.82 nmol /min/mg microsomal or S9; Catalytic efficiencies for formation of 1′-oxoestragole, Chinese versus Caucasian (Chinese liver S9; in vitro, oxidation of 1′-hydroxyestragole, liver S9): similar; Scaled V max (Chinese liver S9; oxidation of 1′-hydroxyestragole, Chinese, S9 protein yield 143 mg/(g tissue)): 15.6 µmol/h/g liver; Catalytic efficiency (scaled V max / K m) (Chinese liver S9; oxidation of 1′-hydroxyestragole, Chinese, scaled to liver): 38.7 µL/h/g liver; Scaled catalytic efficiencies for formation of 1′-oxoestragole, Chinese versus Caucasian (Chinese liver S9; scaled to liver, oxidation of 1′-hydroxyestragole): similar; Catalytic efficiency (V max/K m × 1000) (Caucasian liver S9; [6]): 5.4 µL/min/mg microsomal or S9 protein; K m (Caucasian liver S9; [6]): 521 ± 265 µM; V max (Caucasian liver S9; [6]): 2.8 ± 0.70 nmol /min/mg microsomal or S9 protein; K m (Caucasian liver S9; [7]): 521 µM; V max (Caucasian liver S9; [7]): 2.8 nmol /min/mg microsomal or S9; Scaled V max (Caucasian liver S9; oxidation of 1′-hydroxyestragole, Caucasian, S9 protein yield 143 mg/(g tissue)): 24.0 µmol/h/g liver; Catalytic efficiency (scaled V max / K m) (Caucasian liver S9; oxidation of 1′-hydroxyestragole, Caucasian, scaled to liver): 46.1 µL/h/g liver
COc1ccc(/C=C/CO)cc1 [3′-Hydroxyanethole]	4.8	2.1	2.3 µL/min/mg microsomal or S9 protein	429 ± 80	0.99 ± 0.08 nmol /min/mg microsomal or S9 protein	1.5	0.7	0.71 µL/min/mg microsomal or S9 protein	450 ± 219	0.32 ± 0.07 nmol /min/mg microsomal or S9 protein	3.2	3.1	–
C=CCc1ccc(O)cc1 [4-Allylphenol]	5.0	1.6	2.4 µL/min/mg microsomal or S9 protein	308 ± 71	0.74 ± 0.07 nmol /min/mg microsomal or S9 protein	2.7	0.3	1.3 µL/min/mg microsomal or S9 protein	115 ± 24	0.15 ± 0.01 nmol /min/mg microsomal or S9 protein	1.8	5.0	–
COc1ccc(CC2CO2)cc1 (stereo not drawn) [Estragole-2′,3′-oxide]	26.6	3.9	12.7 µL/min/mg microsomal or S9 protein	146 ± 15	1.85 ± 0.06 nmol /min/mg microsomal or S9 protein	5.5	0.9	2.6 µL/min/mg microsomal or S9 protein	161 ± 17	0.42 ± 0.01 nmol /min/mg microsomal or S9 protein	4.9	4.4	V max, lower in Chinese than in Caucasian liver incubations (Chinese liver microsomes; scaled kinetic constants (Table 3), conversion of estragole): fourfold; Scaled catalytic efficiency, lower for Chinese than Caucasian liver microsomes (Chinese liver microsomes; scaled to liver, conversion of estragole): fivefold
Cc1nnc2n1-c1ccc(Cl)cc1C(c1ccccc1)=NC2 [alprazolam]	–	–	–	–	–	–	–	–	–	–	–	–	Predicted clearance, lower in Chinese than in Caucasian subjects ([2]; intravenous): 21%; Predicted clearance, lower in Chinese than in Caucasian subjects ([2]; oral): 22%; Experimentally observed clearance, lower in Chinese individuals than in Caucasian volunteers ([3]; intravenous): 20%; Experimentally observed clearance, lower in Chinese individuals than in Caucasian volunteers ([3]; oral): 21%
Cc1ncc2n1-c1ccc(Cl)cc1C(c1ccccc1F)=NC2 [midazolam]	–	–	–	–	–	–	–	–	–	–	–	–	Predicted clearance, lower in Chinese than in Caucasian subjects ([2]; intravenous): 24%; Predicted clearance, lower in Chinese than in Caucasian subjects ([2]; oral): 17%; Experimentally observed clearance, lower in Chinese individuals than in Caucasian volunteers ([3]; intravenous): 19%; Experimentally observed clearance, lower in Chinese individuals than in Caucasian volunteers ([3]; oral): 62%
COc1ccc2[nH]c([S+]([O-])Cc3ncc(C)c(OC)c3C)nc2c1 (stereo not drawn) [omeprazole]	–	–	–	–	–	–	–	–	–	–	–	–	Predicted clearance, lower in Chinese than in Caucasian subjects ([2]; route not stated): 51%; Experimentally observed clearance, lower in Chinese individuals than in Caucasian volunteers ([3]; route not stated): 75%
CCCCNC(=O)NS(=O)(=O)c1ccc(C)cc1 [tolbutamide]	–	–	–	–	–	–	–	–	–	–	–	–	Predicted clearance, lower in Chinese than in Caucasian subjects ([2]; route not stated): 25%; Experimentally observed clearance, lower in Chinese individuals than in Caucasian volunteers ([3]; route not stated): 2%
